The record followed here is patent US8940742B2, “Heterocyclic compounds and uses thereof” (Infinity Pharmaceuticals, Inc., priority 2012, dated 2015).

Holding throughout (assay): PI3-Kinase Promega ADP-Glo Max assay
Common to all, as to type: biochemical

One assay deals with T1, PI3K γ (Homo sapiens, UniProt P48736).
T1 construct: purchased Millipore
Conditions: 40 nM kinase, 3 mM ATP, 500 uM diC8-PtdInsP. As to the method:
Promega ADP-Glo Max assay kit (Cat. No. V7002) was utilized to determine IC50 values for α, β, δ and γ isoforms of human Class I PI3 kinases (Millipore). […] Reactions were incubated at room temperature for 2 hours followed by addition of 25 uL of stop solution. After a 40-minute incubation at room temperature, 50 uL of Promega detection mix was added followed by incubation for 1 hour at room temperature. Plates were then read on Envision plate reader in luminescence mode. Data was converted to % inhibition using the following equation below:
[formula] where S is the sample luminescence, Pos is a positive control without added PI3K, Neg is the negative control without added compound. Data was then plotted as % inhibition vs compound concentration.
(§1) Certain compounds provided herein were tested in PI3-Kinase Promega Assay using procedures as described above to determine IC50 values for α, β, δ and/or γ isoforms.

For another assay, the target named is T2, PI3K β (Homo sapiens, UniProt P42338).
T2 construct: purchased Millipore
T2 sequence (P42338 whole entry): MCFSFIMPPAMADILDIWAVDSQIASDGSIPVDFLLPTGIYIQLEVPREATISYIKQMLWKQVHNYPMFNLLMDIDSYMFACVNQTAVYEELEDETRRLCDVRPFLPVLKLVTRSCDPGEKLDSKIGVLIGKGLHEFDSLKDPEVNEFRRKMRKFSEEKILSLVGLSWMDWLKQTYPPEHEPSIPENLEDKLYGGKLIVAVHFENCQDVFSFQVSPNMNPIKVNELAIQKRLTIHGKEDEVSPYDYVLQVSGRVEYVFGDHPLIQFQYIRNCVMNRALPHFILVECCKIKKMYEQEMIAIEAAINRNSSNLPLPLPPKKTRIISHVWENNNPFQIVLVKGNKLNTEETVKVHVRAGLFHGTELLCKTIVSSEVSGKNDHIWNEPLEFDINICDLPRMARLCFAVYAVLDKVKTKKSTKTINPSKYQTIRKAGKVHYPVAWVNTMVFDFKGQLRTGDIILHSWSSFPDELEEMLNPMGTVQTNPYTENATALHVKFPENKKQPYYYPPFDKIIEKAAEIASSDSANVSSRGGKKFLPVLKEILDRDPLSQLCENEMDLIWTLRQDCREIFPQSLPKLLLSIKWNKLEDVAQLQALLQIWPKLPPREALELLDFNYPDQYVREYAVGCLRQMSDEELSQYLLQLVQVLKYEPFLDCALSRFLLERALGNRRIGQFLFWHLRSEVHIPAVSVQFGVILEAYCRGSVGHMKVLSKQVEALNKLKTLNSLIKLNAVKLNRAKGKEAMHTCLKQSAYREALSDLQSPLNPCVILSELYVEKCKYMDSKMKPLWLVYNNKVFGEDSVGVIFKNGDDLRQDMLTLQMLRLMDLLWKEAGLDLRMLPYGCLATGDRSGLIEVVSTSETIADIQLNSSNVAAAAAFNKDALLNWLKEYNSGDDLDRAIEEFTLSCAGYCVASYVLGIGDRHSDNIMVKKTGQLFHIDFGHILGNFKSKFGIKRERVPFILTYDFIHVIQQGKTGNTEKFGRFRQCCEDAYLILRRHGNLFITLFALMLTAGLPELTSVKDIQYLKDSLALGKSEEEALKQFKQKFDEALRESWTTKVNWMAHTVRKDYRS
T2 sequence (P27986 whole entry partner): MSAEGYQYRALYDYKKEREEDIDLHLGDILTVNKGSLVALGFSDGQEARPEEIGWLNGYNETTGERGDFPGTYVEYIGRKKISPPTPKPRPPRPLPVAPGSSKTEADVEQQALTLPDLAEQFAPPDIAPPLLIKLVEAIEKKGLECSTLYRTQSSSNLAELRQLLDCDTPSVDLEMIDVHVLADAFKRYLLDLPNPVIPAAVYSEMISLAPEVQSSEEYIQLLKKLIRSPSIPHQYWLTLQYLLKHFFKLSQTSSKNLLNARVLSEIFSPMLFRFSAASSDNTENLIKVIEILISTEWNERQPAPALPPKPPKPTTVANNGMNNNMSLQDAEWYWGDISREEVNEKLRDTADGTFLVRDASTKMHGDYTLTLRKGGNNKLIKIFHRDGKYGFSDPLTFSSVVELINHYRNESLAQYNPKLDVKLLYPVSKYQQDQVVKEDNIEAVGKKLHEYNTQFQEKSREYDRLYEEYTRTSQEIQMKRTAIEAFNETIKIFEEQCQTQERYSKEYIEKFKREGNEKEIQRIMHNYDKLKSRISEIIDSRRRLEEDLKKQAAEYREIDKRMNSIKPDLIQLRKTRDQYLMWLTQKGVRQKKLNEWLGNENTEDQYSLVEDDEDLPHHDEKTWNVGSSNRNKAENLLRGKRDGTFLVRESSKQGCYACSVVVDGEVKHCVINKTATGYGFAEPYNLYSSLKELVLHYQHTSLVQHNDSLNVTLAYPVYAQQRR
Conditions: 40 nM kinase, 3 mM ATP, 500 uM diC8-PtdInsP. As to the method: (§2) Promega ADP-Glo Max assay kit (Cat. No. V7002) was utilized to determine IC50 values for α, β, δ and γ isoforms of human Class I PI3 kinases (Millipore). Samples of kinase (20 nM α or δ, 40 nM β or γ isoform) were incubated with compound for 15 minutes at room temperature in reaction buffer (15 mM HEPES pH 7.4, 20 mM NaCl, 1 mM EGTA, 0.02% Tween 20, 10 mM MgCl2, 0.2 mg/mL bovine-γ-globulins) followed by addition of ATP/diC8-PtdInsP mixture to give final concentrations of 3 mM ATP and 500 uM diC8-PtdInsP. Reactions were incubated at room temperature for 2 hours followed by addition of 25 uL of stop solution. After a 40-minute incubation at room temperature, 50 uL of Promega detection mix was added followed by incubation for 1 hour at room temperature. Plates were then read on Envision plate reader in luminescence mode. Data was converted to % inhibition using the following equation below:
(§3) [formula] where S is the sample luminescence, Pos is a positive control without added PI3K, Neg is the negative control without added compound. Data was then plotted as % inhibition vs compound concentration. Data fit to 4 parameter logistic equation to determine IC50 values: […]
as §1

In the next assay the target is T3, PI3K δ (Homo sapiens, UniProt O00329).
T3 construct: purchased Millipore
T3 sequence (O00329 whole entry): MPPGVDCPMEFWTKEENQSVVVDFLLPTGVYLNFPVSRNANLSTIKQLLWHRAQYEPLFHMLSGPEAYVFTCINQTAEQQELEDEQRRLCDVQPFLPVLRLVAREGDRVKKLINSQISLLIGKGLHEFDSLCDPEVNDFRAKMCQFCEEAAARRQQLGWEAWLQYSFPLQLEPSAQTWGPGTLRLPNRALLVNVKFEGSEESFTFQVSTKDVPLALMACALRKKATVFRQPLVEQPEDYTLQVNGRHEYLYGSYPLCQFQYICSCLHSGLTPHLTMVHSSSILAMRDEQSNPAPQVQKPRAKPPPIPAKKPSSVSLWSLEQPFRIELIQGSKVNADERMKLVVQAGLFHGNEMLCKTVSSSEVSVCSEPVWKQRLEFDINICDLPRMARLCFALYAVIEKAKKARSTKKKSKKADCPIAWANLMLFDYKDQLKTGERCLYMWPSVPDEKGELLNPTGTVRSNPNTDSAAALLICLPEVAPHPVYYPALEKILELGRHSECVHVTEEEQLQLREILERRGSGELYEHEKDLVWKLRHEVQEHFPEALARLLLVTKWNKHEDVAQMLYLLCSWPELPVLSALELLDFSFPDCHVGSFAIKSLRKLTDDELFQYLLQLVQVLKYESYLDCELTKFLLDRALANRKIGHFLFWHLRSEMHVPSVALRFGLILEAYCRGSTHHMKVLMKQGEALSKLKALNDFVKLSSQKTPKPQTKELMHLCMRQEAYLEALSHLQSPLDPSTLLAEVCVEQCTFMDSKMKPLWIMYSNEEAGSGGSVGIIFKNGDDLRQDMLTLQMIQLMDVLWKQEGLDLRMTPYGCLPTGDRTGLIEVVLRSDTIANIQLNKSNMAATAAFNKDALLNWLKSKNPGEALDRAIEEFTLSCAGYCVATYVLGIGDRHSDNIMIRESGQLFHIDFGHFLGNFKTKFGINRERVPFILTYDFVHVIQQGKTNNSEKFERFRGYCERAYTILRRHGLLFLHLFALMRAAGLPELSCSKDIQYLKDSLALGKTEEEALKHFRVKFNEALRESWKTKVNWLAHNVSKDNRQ
T3 sequence (P27986 whole entry partner): as the sequence (P27986 whole entry partner) above
Conditions: 20 nM kinase, 3 mM ATP, 500 uM diC8-PtdInsP. How it is done:
as §2, §3, §1

Another assay addresses T4, PI3K α (Homo sapiens, UniProt P42336).
T4 construct: purchased Millipore
Conditions: 20 nM kinase, 3 mM ATP, 500 uM diC8-PtdInsP. As to the method: as §2, §3, §1

pIC50: −log10 of the molar value. A value given as a limit tells only on which side of the number the result lay.

T4 sequence (P42336 whole entry): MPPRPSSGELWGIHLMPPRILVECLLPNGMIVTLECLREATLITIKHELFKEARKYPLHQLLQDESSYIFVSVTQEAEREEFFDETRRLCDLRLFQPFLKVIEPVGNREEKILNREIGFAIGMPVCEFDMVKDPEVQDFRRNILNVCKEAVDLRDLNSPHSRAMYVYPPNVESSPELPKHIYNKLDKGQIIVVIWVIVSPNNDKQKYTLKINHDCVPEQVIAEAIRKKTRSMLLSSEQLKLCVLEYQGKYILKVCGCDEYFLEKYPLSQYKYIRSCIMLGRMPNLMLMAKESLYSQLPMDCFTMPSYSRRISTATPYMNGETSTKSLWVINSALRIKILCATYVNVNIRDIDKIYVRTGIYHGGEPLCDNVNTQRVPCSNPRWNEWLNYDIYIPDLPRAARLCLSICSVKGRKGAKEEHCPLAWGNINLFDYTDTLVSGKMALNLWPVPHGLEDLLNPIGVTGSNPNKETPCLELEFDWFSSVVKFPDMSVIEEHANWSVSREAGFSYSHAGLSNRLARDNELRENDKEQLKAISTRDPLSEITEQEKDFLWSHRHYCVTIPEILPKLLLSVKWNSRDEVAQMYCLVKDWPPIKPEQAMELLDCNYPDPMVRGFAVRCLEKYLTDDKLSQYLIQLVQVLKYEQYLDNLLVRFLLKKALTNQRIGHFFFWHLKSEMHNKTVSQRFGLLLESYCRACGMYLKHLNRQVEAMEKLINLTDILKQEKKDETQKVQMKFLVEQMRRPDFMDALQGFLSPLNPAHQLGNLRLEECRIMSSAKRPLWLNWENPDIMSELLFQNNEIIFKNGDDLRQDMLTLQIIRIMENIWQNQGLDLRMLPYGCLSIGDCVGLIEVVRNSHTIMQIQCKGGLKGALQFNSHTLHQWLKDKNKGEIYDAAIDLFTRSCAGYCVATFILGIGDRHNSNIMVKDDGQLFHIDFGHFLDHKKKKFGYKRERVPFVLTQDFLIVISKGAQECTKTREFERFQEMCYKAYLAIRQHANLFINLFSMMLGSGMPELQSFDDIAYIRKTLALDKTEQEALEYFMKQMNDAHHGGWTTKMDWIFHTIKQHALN
T4 sequence (P27986 whole entry partner): as the sequence (P27986 whole entry partner) above
T1 sequence (P48736 whole entry): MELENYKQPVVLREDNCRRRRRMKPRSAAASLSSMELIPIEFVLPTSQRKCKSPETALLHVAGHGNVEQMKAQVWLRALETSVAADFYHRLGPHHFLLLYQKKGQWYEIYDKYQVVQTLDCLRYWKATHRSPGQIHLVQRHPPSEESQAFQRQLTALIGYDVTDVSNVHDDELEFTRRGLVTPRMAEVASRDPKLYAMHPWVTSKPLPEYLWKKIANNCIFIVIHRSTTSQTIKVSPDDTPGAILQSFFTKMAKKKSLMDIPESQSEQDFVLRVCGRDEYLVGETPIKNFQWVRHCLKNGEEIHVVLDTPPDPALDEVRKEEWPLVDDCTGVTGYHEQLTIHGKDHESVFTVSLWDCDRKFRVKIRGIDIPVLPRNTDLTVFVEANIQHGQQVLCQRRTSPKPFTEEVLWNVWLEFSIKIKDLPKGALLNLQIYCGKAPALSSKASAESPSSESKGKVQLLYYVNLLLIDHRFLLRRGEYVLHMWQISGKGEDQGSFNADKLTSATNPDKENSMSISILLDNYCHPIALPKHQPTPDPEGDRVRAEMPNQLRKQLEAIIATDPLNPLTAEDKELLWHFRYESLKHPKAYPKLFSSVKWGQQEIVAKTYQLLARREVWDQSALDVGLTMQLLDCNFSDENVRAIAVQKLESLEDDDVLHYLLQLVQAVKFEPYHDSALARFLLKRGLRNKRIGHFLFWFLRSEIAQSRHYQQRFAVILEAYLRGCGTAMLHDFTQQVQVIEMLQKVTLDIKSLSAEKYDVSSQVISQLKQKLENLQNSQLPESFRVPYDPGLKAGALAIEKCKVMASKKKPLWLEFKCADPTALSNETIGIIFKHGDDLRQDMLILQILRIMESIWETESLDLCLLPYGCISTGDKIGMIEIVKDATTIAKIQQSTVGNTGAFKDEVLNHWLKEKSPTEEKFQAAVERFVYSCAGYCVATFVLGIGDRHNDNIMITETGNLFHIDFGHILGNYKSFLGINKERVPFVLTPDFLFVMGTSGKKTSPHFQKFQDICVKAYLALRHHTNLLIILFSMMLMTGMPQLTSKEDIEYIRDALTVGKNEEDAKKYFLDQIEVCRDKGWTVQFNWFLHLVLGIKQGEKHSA

For orientation: pIC50 means the IC50 on a negative log10 scale, so that one unit is a factor of ten. A higher pIC50 goes with a low IC50. For the compound `CC(C)Nc1cccc2cc([C@H](C)NC(=O)c3c(N)nn4cccnc34)n(-c3ccccc3)c(=O)c12` [Compound 268], the negative logarithm of the IC50 (pIC50) on PI3K γ, at PI3K β, at PI3K δ and at PI3K α was less than 5.00 throughout.
On to `C[C@H](NC(=O)c1c(N)nn2cccnc12)c1nn2ccc(Cl)c2c(=O)n1-c1ccccc1` [Compound 286], for which the pIC50 against PI3K γ, against PI3K β, against PI3K δ and against PI3K α was less than 5.00 each time.
As for `Cc1cnc(C(=O)N[C@@H](C)c2c(Br)c3cccc(Cl)c3c(=O)n2-c2ccccc2)c(N)n1` [Compound 288], the pIC50 against PI3K γ was 5.00 to 6.00; on PI3K β, less than 5.00; against PI3K δ it was 5.00 to 6.00; on PI3K α it was less than 5.00.
On to `C[C@H](NC(=O)c1nc(-c2cncc(NS(C)(=O)=O)c2)cnc1N)c1cc2cccc(Cl)c2c(=O)n1C1CC1` [Compound 172], for which the pIC50 against PI3K γ, against PI3K β, on PI3K δ and at PI3K α was more than 7.00 throughout.
Take `CNCc1cccc2cc([C@H](C)NC(=O)c3c(N)nn4cccnc34)n(-c3ccccc3)c(=O)c12` [Compound 230]: the pIC50 on PI3K γ is less than 5.00; against PI3K β, less than 5.00; on PI3K δ, 5.00 to 6.00; on PI3K α, less than 5.00.
With `C[C@H](NC(=O)c1c(N)nn2cccnc12)C1Cc2cccc(F)c2C(=O)N1c1ccccc1` (stereo partly drawn) [Compound 304], the pIC50 against PI3K γ, at PI3K β, against PI3K δ and at PI3K α was less than 5.00 throughout.
Consider `C[C@H](NC(=O)c1c(N)nn2cccnc12)c1cc2cccc(NC3CCCCC3)c2c(=O)n1-c1ccccc1` [Compound 265], for which the pIC50 against PI3K γ, at PI3K β, on PI3K δ and at PI3K α was less than 5.00 throughout.
`C[C@H](NC(=O)c1c(N)nn2cccnc12)c1cc2cccc(Cl)c2c(=O)n1CCNCCO` [Compound 243]: the pIC50 is 5.00 to 6.00 against PI3K γ, more than 7.00 against PI3K β, 6.00 to 7.00 on PI3K δ and 5.00 to 6.00 at PI3K α.
Consider `C[C@H](NC(=O)c1nc(-c2cccc(S(=O)(=O)N3CCOCC3)c2)cnc1N)c1cc2cccc(Cl)c2c(=O)n1-c1ccccc1` [Compound 95], for which the pIC50 on PI3K γ, at PI3K β, on PI3K δ and at PI3K α was less than 5.00 each time.
On to `C[C@H](NC(=O)c1c(N)nn2cccnc12)c1cc2cccc(CN(C)C)c2c(=O)n1-c1ccccc1` [Compound 231], for which the pIC50 was less than 5.00 at PI3K γ, less than 5.00 against PI3K β, more than 7.00 on PI3K δ and less than 5.00 against PI3K α.
For the compound `C[C@H](NC(=O)c1nc(-c2cccc(NS(C)(=O)=O)c2)cnc1N)c1cc2cccc(N3CCOCC3)c2c(=O)n1-c1ccccc1` [Compound 263], the pIC50 against PI3K γ was 5.00 to 6.00; at PI3K β it was less than 5.00; against PI3K δ, less than 5.00; against PI3K α it was less than 5.00.
With `CNCCn1c([C@H](C)NC(=O)c2c(N)nn3cccnc23)cc2cccc(Cl)c2c1=O` [Compound 241], the pIC50 on PI3K γ is 5.00 to 6.00; at PI3K β, more than 7.00; against PI3K δ, more than 7.00; on PI3K α, 5.00 to 6.00.
For `Nc1nccnc1C(=O)N1CCC[C@H]1c1cc2cccc(Cl)c2c(=O)n1-c1ccccc1` [Compound 148], the pIC50 is less than 5.00 at PI3K γ, less than 5.00 against PI3K β, 5.00 to 6.00 at PI3K δ and less than 5.00 against PI3K α.
For the compound `Nc1nn2cccnc2c1C(=O)NCc1cc2cccc(Cl)c2c(=O)n1-c1ccccc1` [Compound 274], the pIC50 against PI3K γ, against PI3K β, against PI3K δ and against PI3K α was less than 5.00 each time.
For `C[C@H](NC(=O)c1c(N)nn2cccnc12)c1c(Br)c2cccc(F)c2c(=O)n1-c1ccccc1` [Compound 255], the pIC50 on PI3K γ was 6.00 to 7.00; on PI3K β it was 5.00 to 6.00; at PI3K δ, 5.00 to 6.00; against PI3K α, 5.00 to 6.00.
Take `CC(C)c1ccnc2c(C(=O)N[C@@H](C)c3cc4cccc(Cl)c4c(=O)n3-c3ccccc3)c(N)nn12` [Compound 177]: the pIC50 against PI3K γ, against PI3K β, against PI3K δ and against PI3K α was less than 5.00 each time.
Turning to `COc1cccc(-c2cnc(N)c(C(=O)N[C@@H](C)c3cc4cccc(Cl)c4c(=O)n3-c3ccccc3)n2)c1` [Compound 105], the pIC50 against PI3K γ, against PI3K β, against PI3K δ and against PI3K α was less than 5.00 each time.
As to `Nc1nn2cccnc2c1C(=O)N1CCC[C@H]1c1cc2cccc(Cl)c2c(=O)n1-c1ccccc1` [Compound 147], the pIC50 at PI3K γ was 5.00 to 6.00; on PI3K β, 5.00 to 6.00; against PI3K δ, less than 5.00; at PI3K α it was less than 5.00.
Consider `COc1cccc2c(C)c([C@H](C)NC(=O)c3c(N)nn4cccnc34)n(-c3ccccc3)c(=O)c12` [Compound 261], for which the pIC50 was 6.00 to 7.00 on PI3K γ, less than 5.00 on PI3K β, 5.00 to 6.00 at PI3K δ and less than 5.00 at PI3K α.
With `COc1cc(-c2csc3cc([C@H](C)NC(=O)c4c(N)nn5cccnc45)n(-c4ccccc4)c(=O)c23)ccn1` [Compound 213], the pIC50 against PI3K γ, on PI3K β, at PI3K δ and against PI3K α was less than 5.00 each time.
As to `C[C@H](NC(=O)c1c(N)nn2cccnc12)c1cc2cccc(Cl)c2c(=O)n1CC(=O)N(C)C` [Compound 296], the negative-log IC50 (pIC50) is less than 5.00 against PI3K γ, 5.00 to 6.00 on PI3K β, less than 5.00 against PI3K δ and less than 5.00 against PI3K α.
With `C[C@H](NC(=O)c1c(N)nn2c1NCCC2)c1cc2cccc(Cl)c2c(=O)n1-c1ccccc1` [Compound 307], the pIC50 against PI3K γ, at PI3K β, against PI3K δ and at PI3K α was less than 5.00 in each case.
For the compound `C[C@H](NC(=O)c1nccnc1N)c1nc2cccc(Cl)c2c(=O)n1-c1ccccc1` [Compound 289], the negative logarithm of the IC50 (pIC50) was 6.00 to 7.00 at PI3K γ, 5.00 to 6.00 against PI3K β, more than 7.00 against PI3K δ and less than 5.00 against PI3K α.
For `COc1cc(-c2cccc3cc([C@H](C)NC(=O)c4c(N)nn5cccnc45)n(C4CCCCC4)c(=O)c23)ccn1` [Compound 233], in that order: 5.00 to 6.00, less than 5.00, less than 5.00 and less than 5.00.
The like results for `C[C@H](NC(=O)c1c(N)nn2cccnc12)c1nn2ccc(-c3cnn(C)c3)c2c(=O)n1-c1ccccc1` [Compound 287] were, in that order, less than 5.00, less than 5.00, less than 5.00 and less than 5.00.
The like results for `C[C@H](NC(=O)c1c(N)nn2cccnc12)c1cc2cccc(OC(F)(F)F)c2c(=O)n1-c1ccccc1` [Compound 302] were, in that order, 5.00 to 6.00, less than 5.00, 5.00 to 6.00 and less than 5.00.
`COC(=O)c1ncsc1-c1cccc2cc([C@H](C)NC(=O)c3c(N)nn4cccnc34)n(-c3ccccc3)c(=O)c12` [Compound 248]: the negative logarithm of the IC50 (pIC50) against PI3K γ was 5.00 to 6.00; against PI3K β, less than 5.00; against PI3K δ, less than 5.00; at PI3K α, less than 5.00.
For `CC(=O)Nc1ncc(-c2cccc(NS(C)(=O)=O)c2)nc1C(=O)N[C@@H](C)c1cc2cccc(Cl)c2c(=O)n1C` [Compound 185], the negative-log IC50 (pIC50) against PI3K γ, against PI3K β, against PI3K δ and against PI3K α was less than 5.00 each time.
With `C[C@H](NC(=O)c1c(N)nn2cccnc12)c1cc2cccc(CNCC3CCCO3)c2c(=O)n1-c1ccccc1` (stereo partly drawn) [Compound 229], the pIC50 against PI3K γ is 5.00 to 6.00; at PI3K β it was less than 5.00; at PI3K δ it was 5.00 to 6.00; against PI3K α, less than 5.00.
For `COc1ncc(-c2cccc3cc([C@H](C)NC(=O)c4c(N)nn5cccnc45)n(-c4ccccc4)c(=O)c23)s1` [Compound 246], the pIC50 is 6.00 to 7.00 on PI3K γ, less than 5.00 on PI3K β, 5.00 to 6.00 on PI3K δ and less than 5.00 on PI3K α.
